Source: patent US5126057A, “Disinfecting with N,N'-dihaloimidazolidin-4-ones” (Auburn Research Foundation, priority 1991, dated 1992)
Like-named read-outs stand apart in the source and are kept apart here.

Experiments:
[1] = Stability in demand-free water exposed to direct sunlight; format: physicochemical; settings: pH 7; for remaining at 3 h / remaining at 5 h / remaining at 10 h: demand-free water, direct sunlight
Description: The stabilities of compounds 1,5, and free chlorine from calcium hypochlorite (Compound 2) in water exposed to direct sunlight were determined. Each compound at the 10 milligrams per liter total chlorine concentration level (or at the molar equivalent for total halogen for Compound 5) was dissolved in 85 milliliters of demand-free water buffered at pH 7.0 in separate 100 milliliter beakers which were placed in a temperature-controlled water bath (22°-24° C.), and the bath containing the solutions was placed on the roof of the chemistry building at Auburn University exposed to direct sunlight during August 1988. Total potential positive halogen assays were made periodically on aliquots withdrawn over a 10 hour period using the standard iodometric titration technique.

[2] = system: Oscillatoria lutea, Anabaena cylindrica, and Chlorella pyrenoidosa; assay: Algastatic effect on heavy algal growth in aquariums; format: cell-based; settings: for regrowth of algae (in words): after total elapsed time of 19 days, all titratable chlorine disappeared; for Percent Total Potential Positive Chlorine Remaining: algal aquarium; for algastatic / algacidal effect (in words): extended periods, water containing heavy algal growth; for decoloration / bleaching of algae (in words): within 2 days for Cpd 1 (9.9 mg per liter Cl+), Cpd 3 at 4.9 mg per liter
Text: Two 10 gallon aquariums each containing 35 liters of Bristol's solution (described by R. C. Starr in the article "The Culture Collection of Algae at the University of Texas", J. Phycology, 14, 47 (1978)) at pH 6.8 were inoculated with a mixture of three species of algae; Oscillatoria lutea, Anabaena cylindrica, and Chlorella pyrenoidosa. The 2 aquariums were continually aerated and each illuminated by a 20 watt Gro-lux lamp placed 15 centimeters from the side of the aquarium. The experiment was conducted at ambient temperature which ranged between 21° and 24° C.
After a 34 day growth period the heavy algal cell density was measured by direct counts using a hemacytometer. The cell density in aquarium A at this time was 2.2×10^7 cells per milliliter, while that in aquarium B was 6.6×10^6 cells per milliliter. The absorbances of the two solutions at 750 nanometers were also measured at that time and found to be 0.273 for aquarium A and 0.112 for aquarium B. The absorbance at 750 nanometers has been employed as an index of algal chlorophyll concentration ("Standard methods for the Examination of Water and Wastewater", 16th edition, American Public Health Association, Washington, D.C., 1985, p. 1070). Then a solution of 1.042 grams of 1,3-dichloro-2,2,5,5-tetramethylimidazolidin-4-one (Compound 1) as prepared in example 3 in 500 milliliters of demand-free water (DFW) was added to aquarium A resulting in an initial potential positive chlorine concentration of 9.9 milligrams per liter in that aquarium. Similarly a solution of 0.872 gram of 1-chloro-2,2,5,5-tetramethylimidazolidin-4-one (Compound 3) as prepared in example 6 in 500 milliliters of DFW was added to aquarium B resulting in an initial potential positive chlorine concentration of 4.9 milligrams per liter in that aquarium. The aquariums were sampled periodically and analyzed for algal growth by means of absorbance measurements at 750 nanometers using a Milton Roy Spectronic 301 spectrophotometer and for total potential positive chlorine concentration using standard iodometric titration. […] Following the loss of all total potential positive chlorine from the aquariums, second additions of 0.87 grams of Compound 3 and of 1.042 grams of Compound 1 were made to aquariums B and A, respectively.

[3] = system: Staphylococcus aureus (ATCC 25923); assay: Disinfection of hard surfaces (modified AOAC Use-Dilution Method, stainless steel cylinders); format: cell-based; settings: for bacterial growth after contact (in words): 25, 50, 100, 200 ppm positive chlorine (molar equivalents for Cpd 5), pH 7.0, 10 minutes contact; for minimal effective concentration: Staphylococcus aureus, ATCC25923, 10 min, 10 minutes contact, pH 7.0, read-out: effective hard surface disinfectant concentration
Description: The efficacies of compounds 1 and 5 as hard surface disinfectants were assessed by using a modification of the AOAC Use-Dilution Method as described in "Official Methods of Analysis of the Association of Official Analytical Chemists", ed. W. Horwitz, A.O.A.C., Washington, D.C., 1989, pp. 58-59. Small stainless steel cylinders (Penicylinders from Fisher Scientific) were cleaned with 1 Normal sodium hydroxide solution, sterilized in 0.1 percent asparagine in an autoclave, and cooled to ambient temperature. The cylinders were then inoculated with Staphylococcus aureus (ATCC 25923) by placing them in a 24 hour old nutrient broth culture of the organism for 15 minutes. The cylinders were aseptically removed from the broth, placed in a sterile petri dish upon filter paper for draining, and dried at 37° C. in an incubator for 60 minutes.
The halogenated imidazolidin-4-ones were dissolved in demand-free water buffered at pH 7.0 at concentrations of 25, 50, 100, and 200 parts per million of potential ionizable positive chlorine for Compound 1 (or molar equivalents of total potential ionizable positive halogen for Compound 5), and 2 milliliter aliquots of the solutions were added to each of a series of sterile culture tubes. Control solutions of pH 7.0 demand-free water were also added to a series of tubes. At least 10 tubes at each concentration of disinfectant were employed. Then an inoculated metal cylinder was added to each tube containing disinfectant and each control tube at exactly 30 second intervals. After exactly 10 minutes contact time the cylinders were removed from the tubes at 30 second intervals in the same order as was used for their addition, i.e. the contact time was 10 minutes for all cylinders. Each metal cylinder was placed into a culture tube containing 3 milliliters of nutrient broth and 0.01 normal sodium thiosulfate to quench disinfectant action. All tubes were examined for bacterial growth (inspected for the presence or absence of turbidity) following 48 hours of incubation at 37° C.

[4] = day 0, initial 9.9 (Cpd 1) or 4.9 (Cpd 3) mg per liter
[5] = day 6 (then additional 0.87 grams of Cpd 3 added), 8640 min
[6] = day 10 (then additional 1.042 grams of Cpd 1 added), 14400 min
[7] = day 0 (before addition), initial Cl+ 9.9 (Cpd 1) or 4.9 (Cpd 3) mg per liter
[8] = day 1, initial Cl+ 9.9 (Cpd 1) or 4.9 (Cpd 3) mg per liter
[9] = day 3, initial Cl+ 9.9 (Cpd 1) or 4.9 (Cpd 3) mg per liter
[10] = day 8, second addition of Cpd 3 at day 6
[11] = day 10, second addition of Cpd 3 at day 6, of Cpd 1 at day 10
[12] = day 19, after second additions, no titratable chlorine left

remaining at 3 h [1] [%]	remaining at 5 h [1] [%]	remaining at 10 h [1] [%]	Percent Total Potential Positive Chlorine Remaining [2, 4] [%]	Percent Total Potential Positive Chlorine Remaining ([2]; day 1) [%]	Percent Total Potential Positive Chlorine Remaining ([2]; day 3) [%]	Percent Total Potential Positive Chlorine Remaining [2, 5] [%]	Percent Total Potential Positive Chlorine Remaining ([2]; day 7) [%]	Percent Total Potential Positive Chlorine Remaining ([2]; day 8) [%]	Percent Total Potential Positive Chlorine Remaining [2, 6] [%]	Percent Total Potential Positive Chlorine Remaining ([2]; day 16) [%]	SMILES	stability (in words) [1]	regrowth of algae (in words) [2]	A750 (Absorbance at 750 Nanometers) [2, 7]	A750 (Absorbance at 750 Nanometers) [2, 8]	A750 (Absorbance at 750 Nanometers) [2, 9]	A750 (Absorbance at 750 Nanometers) [2, 10]	A750 (Absorbance at 750 Nanometers) [2, 11]	A750 (Absorbance at 750 Nanometers) ([2]; day 16, after second additions)	A750 (Absorbance at 750 Nanometers) [2, 12]	other results
84.9	74.8	51.2	100.0	82.9	44.4	13.8	7.0	3.4	0.0	34.7	CC1(C)C(=O)N(Cl)C(C)(C)N1Cl [Compound 1, 1,3-dichloro-2,2,5,5-tetramethylimidazolidin-4-one]	much more stable than free chlorine	the algae began to grow again	0.273	0.064	0.081	0.058	0.038	0.020	0.055	time to noticeable loss of green coloration ([2]; Cpd 1 at 9.9 mg per liter Cl+): ≤ 4 h; algastatic / algacidal effect (in words) [2]: algastatic, but not algacidal; decoloration / bleaching of algae (in words) [2]: only white turbidity resulting from the bleaching of the algae; bacterial growth after contact (in words) [3]: none of the tubes containing compounds 1 or 5 at any of the concentration levels exhibited bacterial growth; minimal effective concentration ([3]; potential ionizable positive chlorine): ≤ 25 µg/mL
			100.0	71.8	31.0	0.0	77.3	47.6	17.3	0.0	CC1(C)NC(=O)C(C)(C)N1Cl [Compound 3, 1-chloro-2,2,5,5-tetramethylimidazolidin-4-one]		the algae began to grow again	0.112	0.063	0.066	0.021	0.012	0.007	0.010	algastatic / algacidal effect (in words) [2]: algastatic, but not algacidal; decoloration / bleaching of algae (in words) [2]: a longer time period for decoloration
60.5	45.7	14.9									CC1(C)C(=O)N(Cl)C(C)(C)N1Br [Compound 5, 1-bromo-3-chloro-2,2,5,5-tetramethylimidazolidin-4-one]	less stable than Compound 1, but significantly more stable than free chlorine									bacterial growth after contact (in words) [3]: none of the tubes containing compounds 1 or 5 at any of the concentration levels exhibited bacterial growth; minimal effective concentration ([3]; total potential positive halogen): ≤ 40.7 µg/mL
